Results taken from patent US20230255943A1, “MMP-9 AND MMP-12 INHIBITION FOR TREATING SPINAL CORD INJURY OR RELATED INJURY TO NEUROLOGICAL TISSUE” (The University of Birmingham, priority 2020, published 2023).

Columns and labels:
[1] = test system: gelatinase enzyme activity; assay: In situ zymography of DC-injured spinal cord sections; assay type: in vivo, mouse; conditions: oral and intrathecally-administered
Method: Animals were killed by CO2 overdose intracardially perfused with warm PBS and unfixed tissues were harvested. […] In situ zymography was performed as described previously (Z. Ahmed, R. G. Dent, W. E. Leadbeater, C. Smith, M. Berry, A. Logan, Matrix metalloproteases: degradation of the inhibitory environment of the transected optic nerve and the scar by regenerating axons. Mol Cell Neurosci 28, 64-78 (2005)).
Briefly, 15 μm-thick unfixed frozen longitudinal sections of the spinal cord were cut on a cryostat and incubated at 25° C., for 24 h in 50 mM Tris, pH 7.4, 150 mM NaCl, 5 mM CaCl2, 0.2 mM sodium azide and 40 ug/ml fluorescein conjugated DQ™ gelatin (Molecular Probes). Upon proteolysis, the highly fluoresceinated gelatin residues became separated and fluorescence resulted. Control sections were incubated either without DQ™ gelatin or incubated with 50 μM 1,10-phenanthroline (Sigma, Poole, UK) to block MMP activation. […] After final washes in PBS, sections were mounted in Vectashield with DAPI (Vector Laboratories, Loughborough, UK) and viewed with a Zeiss Axioplan 2 fluorescence microscope, equipped with an AxioCam HRc and running Axiovision software (Zeiss, Hertfordshire, UK).

[2] = test system: mice with DC crush injury; assay: Immunohistochemistry of scar tissue (laminin, Sema-3A, CS-56) at lesion site; assay type: in vivo, mouse; conditions: for attenuation of laminin immunoreactivity (scar tissue): 4 weeks after DC injury
Description: After killing animals by exposure to rising concentrations of CO2, mice were intracardially perfused with 4% formaldehyde (TAAB Laboratories, Berkshire, UK) in 0.1M phosphate buffered saline (PBS). The lesion site+5 mm either side were dissected out, post-fixed in 4% formaldehyde and subjected to a graded series of sucrose solutions for cryoprotection. Spinal cords were blocked in OCT mounting compound (TAAB laboratories), sectioned longitudinally at 15 μm-thick using a cryostat (Brights Instruments, Huntingdon, UK) before being collected on charged glass slides (ThermoFisher Scientific, Loughborough, UK) and kept at −20° C. until required. Slides were numbered consecutively and sections from the middle of the lesion site were chosen for all immunohistochemical analyses, as described by previously (Surey S, Berry M, Logan A, Bicknell R, Ahmed Z. Differential cavitation, angiogenesis and wound-healing responses in injured mouse and rat spinal cords. Neuroscience 2014; 275: 62-80).
Fluorescent immunohistochemistry was performed as described previously (S. Surey, M. Berry, A. Logan, R. Bicknell, Z. Ahmed, Differential cavitation, angiogenesis and wound-healing responses in injured mouse and rat spinal cords. Neuroscience 275, 62-80 (2014)). […] Laminin was detected at 4 weeks after DC injury and treatment using a rabbit polyclonal anti-laminin primary antibody (ab11575; 1:400 dilution, Abcam). Macrophages were detected with a rabbit polyclonal anti-CD68 antibody (ab1525212; 1:500 dilution, Abcam); microglia were detected using a rabbit polyclonal antibody to CD11b (ab128797, 1:500 dilution, Abcam); GFAP was detected using a polyclonal anti-GFAP antibody (SAB5700611, 1:400 dilution, Sigma) were all detected at 10 days after DC injury and treatment. Semaphorin-3A (Sema-3A) and chondroitin sulphate proteoglycan (CSPG) was detected using monoclonal anti-CS-56 antibody (C8035; 1:200 dilution, Sigma) at 7 days after injury. […] CTB labelled axons in the mouse were detected using a goat polyclonal anti-CTB antibody (#703; 1:1000 dilution, List Biological Labs) at 6 weeks after DC injury.
All analyses were performed by investigators masked to the experimental groups. Relative fluorescent staining intensity was calculated by image analysis as described previously (Surey S, Berry M, Logan A, Bicknell R, Ahmed Z. Differential cavitation, angiogenesis and wound-healing responses in injured mouse and rat spinal cords. Neuroscience 2014; 275: 62-80). Briefly, photomicrographs taken at 5× magnification using the same standardized exposure settings throughout for each antibody were thresholded and the mean integrated intensity of pixels/unit area for each antibody was recorded Using ImageJ (NIH, USA) from n=12 mice/antibody.

[3] = immediate or delayed by 24 h, 7 days (8 days delayed group)

C[C@]1(CS(=O)(=O)N2CC=C(C#Cc3cnc(C4CC4)nc3)CC2)NC(=O)NC1=O [AZD1236]
DC injury-induced gelatinase activity adjacent to the lesion site [1]: completely suppressed | attenuation of laminin immunoreactivity (scar tissue) ([2]; 24 hour delayed): > 77% | attenuation of CS-56 immunoreactivity at the lesion site [2, 3]: > 81% | attenuation of Sema-3A immunoreactivity at the lesion site [2, 3]: > 84% | attenuation of laminin immunoreactivity (scar tissue) ([2]; immediately after injury): > 80%
